US20170021023A1 (RESDEVCO RESEARCH AND DEVELOPMENT CO. LTD., priority 2005, published 2017)

How the values were obtained:
epithelial conical cells = experiment: Rabbit eye drop treatment for 3 months, electron microscopy of epithelial cells; type: in vivo, rabbits; conditions: preservatives such as benzalkonium chloride, cetrimonium bromide, sodium ethylene diamine tetraacetate
Method: 3 rabbits were treated for 3 months twice daily with eye drops, adjusted to pH 7.0. The average cross section of the epithelial conical cells and the percentage of damaged cells were evaluated by electron microscopy.

dry eye patients = experiment: Fluorescein Break Up Time (BUT) study in dry eye patients; type: in vivo, human; conditions: concentration of 0.002%
Excerpt: The advantages resulting from the addition of a surface active agent include a decrease in the surface tension of the aqueous solution, thereby increasing the spread. […] It is accepted that a BUT of 10 sec. or less indicates dry eye syndrome; see Example 11 below.

For `OCC(O)CO` [glycerol], the “Effect on conical cell damage caused by preservatives” value (epithelial conical cells) was “counteracts conical cell damage”.
In the case of polysorbate 80, the “Effect on diminished Break Up Time (BUT)” value (dry eye patients) is reported as “increases the diminished Break Up Time (BUT)”.
